The values that follow come from US12066445B2, “System and method for cell levitation and monitoring” (THE BRIGHAM AND WOMEN'S HOSPITAL, INC., priority 2014, dated 2024).

Counter-ions that a name gives are not always drawn.

Data set [1] relates to yeast cells. Briefly: Viability and magnetic levitation of yeast cells after drug treatment. The class given is cell-based. Conditions: for levitation heights, magnetic properties and intrinsic magnetic signatures of yeast cells: 100 μM for 24 hours, 15 minutes of magnetic levitation, FIG. 14b; for viability of yeast cells (optical density): 100 μM, 24 hours, FIG. 14a. How it is done: Looking at FIG. 14, the magnetic levitation and characteristics of yeast cells are illustrated that have either not been exposed or have been exposed to various drug treatments for some duration of time. FIG. 14a graphs the viability of yeast cells after different drug treatments (i.e., no drug treatment/control, 100 μM cantharidin, or 100 μM fluconazole) for 24 hours. […] FIG. 14b provides micrographs illustrating how, after 15 minutes of magnetic levitation, the levitation heights, magnetic properties and intrinsic magnetic signatures of yeast cells are altered after drug treatment with 100 μM cantharidin and 100 μM fluconazole for 24 hours.
Turning now to FIG. 15, this figure provides data relating to the observed drug responses and observed changes in magnetic profile of cells. […] FIG. 15d provides various micrographs of cells treated with different concentration of drug (fluconazole), the treatment concentration being listed above each micrograph. […] It is further noted that these changes can be monitored with the magnetic levitation system at the single-cell level.
(§1) In the examples above, to load samples into a microcapillary tube, microcapillaries were simply dipped into the sample vials, and sample filled into the capillary due to capillary forces. For each experiment, new microcapillary was used. Further, unless otherwise stated, cells were resuspended in 200 μL of 40 mM Gadolinium solution and loaded in 1.0×1.0 mm square microcapillary tubes (wall thickness 0.2 mm) by superficial tension action. Critoseal™ was inserted into either end of the microcapillary to prevent cells from drifting during analysis. The capillary was then loaded into a slot between the magnets and cells were imaged using either QImaging Emc^2 EMCCD camera on an Olympus BX62 microscope or a Qimaging EXi CCD camera on a Zeiss Axioscope microscope. For high-resolution images, a fluorescence microscope leveled on its side was perfectly horizontally placed, and used a mirror-free magnetic levitation setup. The images were analyzed with Slidebook 5.5. (3i, Denver, CO), ImageProPlus 7 (Media Cybernetics, Rockville, MD), and iVison 4.7 (Biovision, Exton PA).

The subject of data set [2] is MDA breast cancer cells. The protocol: FIG. 12b details the real-time observation of a HCl-applied single cell in which a viability assay was also conducted using Calcein (green fluorescent) for live cell and Propidium Iodine (red fluorescent) for dead cell. Fluorescent images and bright field images were overlapped each other to compose the micrographs at different time point.

Data set [3] concerns human PMNs. Briefly: Static levitation of activated and GSH-treated PMNs. The class given is cell-based. The protocol:
Freshly isolated PMNs were activated by incubating them either with buffer (resting PMN), GSH-ME (GSH-treated PMN), or 10 nM PMA (activated PMN) for 5 minutes, washing twice, mixing, and resuspending them in 35 mM Gd+ solution. Prior to treatments, cells were labeled either with Cell Tracker Green (activated PMN) or Cell Mask Deep Red (GSH-treated PMN).
The response of human PMNs during the activation phase of phagocytosis was studied by incubating PMNs with phorbol 12-myristate 13-acetate (PMA, 10 nM) for 10 minutes. As a control, PMNs were left in buffer for 10 minutes. Cells were then washed, fluorescently labeled, mixed together, and loaded into the magnetic levitation setup.
[formula] […] The same samples were simultaneously examined by flow cytometry for changes in forward and side-scatter properties of PMNs associated with PMA activation, shown in FIG. 3d.
To further understand the effect of intracellular ROS on the final position of levitating cells, cell permeable glutathione (GSH), an ROS scavenger was used.

For data set [4], the system named is sickle RBCs. Description: Levitation of healthy and sickle RBCs after sodium metabisulfite-induced dehydration. The class given is cell-based, human. Conditions: 10 μM for 10 minutes at room temperature, images after 10 minutes of levitation. How it is done: RBCs isolated from healthy and sickle cell disease patients were washed three times and incubated with 10 μM sodium metabisulfite for 10 minutes at room temperature. Cells were levitated as described above and images were recorded after 10 minutes. To increase the contrast of the cells against the background, images were filtered using an edge detection algorithm (Roberts).

Data set [5] deals with multi-drug resistant E. coli. Briefly: Magnetic levitation profile of multi-drug resistant E. coli after antibiotic treatment. The class given is cell-based. The note with it: multi-drug resistant E. coli clinical isolate, 1 mg/mL, two hours, FIG. 22. How it is done:
as §1

The test system of data set [6] is multi-drug resistant E. coli. Conditions: cited from earlier work.
The subject of data set [7] is E. coli. Description: Magnetic levitation profile of E. coli after antibiotic treatment. The class given is cell-based. Conditions: for change of levitation heights and cellular magnetic profiles versus untreated control: E. coli treated two hours, 1 mg/mL, FIG. 21.
Source text: As the bacteria respond to the stimuli and antibiotics, their density are altered. This directly reflects on their levitation heights.
With forward reference to FIG. 21, differences are illustrated in the observed magnetic levitation profiles of E. coli cells after different types of antibiotic treatment. […] The magnetic levitation profile of each of these antibiotics are compared to a control (i.e., untreated E. coli cells) in FIGS. 21a, 21b, and 21c, respectively.
as §1

The subject of data set [8] is RBCs. Description: Levitation of RBCs after photolysis of caged ATP. The note with it: extracellular ATP 0 to close to 10 mM after photolysis, 40 mM Gd+, FIG. 4c. The class given is cell-based. The source says:
Consistent with this possibility that UV-induced ROS increased the paramagnetic signature of RBCs, in areas with increased cell density, RBCs formed distinct aggregates, shown as the red circle in FIG. 4b, likely due to weak paramagnetic attraction between ROS-containing RBCs. To test this hypothesis, a burst of extracellular ATP to dissociate 2-3 DPG (2,3-diphosphoglycerate) from hemoglobin was used, a process that also transitions RBCs from diamagnetic to weak paramagnetic cells. Isolated RBCs were washed and resuspended in HBSS^++ containing 40 mM Gd+ and 10 mM caged ATP (Life Technologies). RBCs were loaded into the capillary, placed between the magnets, and allowed to focus. Next, a region of 60×900 μm located about 70 μm above the levitating RBCs was selected and illuminated by a […] for 1 second at 100% intensity. The un-caged ATP, released into the suspension increased the extracellular concentration of ATP from 0 to nearly 10 mM. Cells were recorded using Slidebook 5.5. Following photolysis, caged-ATP became ATP, effectively increasing the concentration of biologically-active, extracellular ATP from 0 to close to 10 mM. […]

As to `OC(Cn1cncn1)(Cn1cncn1)c1ccc(F)cc1F` [fluconazole], in data set [1], the “levitation heights, magnetic properties and intrinsic magnetic signatures of yeast cells” value was “altered”; the “viability of yeast cells (optical density)” value is given as “Different viabilities are observed”. For the same molecule, the “cellular magnetic profiles and single-cell densities” value in data set [1] (25, 50 or 100 μM, FIG. 15) is “cellular magnetic profiles and densities change”.

For `Cl` [HCl, hydrochloric acid], the “levitation height z of treated cells (bottom of the channel)” value in data set [2] (40 minutes of exposure to 100 mM HCl, FIG. 12a) was −500 μm. In addition, the “viability assay (Calcein / Propidium Iodine) of a single cell” value in data set [2] (HCl-applied single cell, over 700 seconds, FIG. 12b) was “dying cell”.

For `CCCCCCCCCCCCCC(=O)O[C@@H]1[C@@H](C)[C@@]2(O)[C@@H](C=C(CO)C[C@]3(O)C(=O)C(C)=C[C@@H]23)[C@@H]2C(C)(C)[C@]12OC(C)=O` [PMA, phorbol 12-myristate 13-acetate], the “size, shape, optical density, magnetic and mass density signatures versus control PMNs” value in data set [3] (10 nM for 10 minutes, FIG. 3a) is recorded as “distinct differences”. Further, the “roundness of cells versus buffer-treated PMNs” value in data set [3] (PMA-activated PMNs, FIG. 3c) was “significant difference”.

As to `O=S([O-])S(=O)(=O)[O-].[Na+].[Na+]` [sodium metabisulfite], the “density of a subpopulation of sickle RBCs after treatment” value in data set [4] is reported as “significantly denser than healthy RBCs”.

In the case of `C[C@@]12C(=O)OC(=O)[C@]1(C)[C@H]1CC[C@@H]2O1` [cantharidin], in data set [1], the “levitation heights, magnetic properties and intrinsic magnetic signatures of yeast cells” value is “altered”; the “viability of yeast cells (optical density)” value is listed as “Different viabilities are observed”.

With `CCOC(=O)CNC(=O)[C@H](CS)NC(=O)CC[C@H](N)C(=O)O` [GSH, Glutathione reduced ethyl ester], in data set [3] (35 mM Gd+ solution, FIG. 3e), the “final levitation position of treated PMNs” value is “equilibrated closer to resting PMNs”.

Take `CC1(C)S[C@@H]2[C@H](NC(=O)[C@H](N)c3ccccc3)C(=O)N2[C@H]1C(=O)O` [ampicillin]: in data set [5], the “change in levitation heights and magnetic levitation profiles” value was “no significant change”. For the same molecule, the “resistance or susceptibility of the clinical isolate” value in data set [6] is recorded as “resistant”. In addition, the “change of levitation heights and cellular magnetic profiles versus untreated control” value in data set [7] was “change the levitation heights and cellular magnetic profiles in a different manner”. For the same molecule, the “differences between untreated and treated bacteria in magnetic levitation heights” value in data set [7] (E. coli, FIG. 13) was “significant differences”.

As for `Nc1ncnc2c1ncn2[C@@H]1O[C@H](COP(=O)(O)OP(=O)(O)OP(=O)(O)O)[C@@H](O)[C@H]1O` [ATP], the “changes in magnetic properties and levitation of RBCs” value in data set [8] is recorded as “loss of levitation”.

Take gentamicin: the “change in levitation heights and magnetic levitation profiles” value in data set [5] is “noticeable change”. The “resistance or susceptibility of the clinical isolate” value in data set [6] is “susceptible”. Moreover, the “change of levitation heights and cellular magnetic profiles versus untreated control” value in data set [7] is “change the levitation heights and cellular magnetic profiles in a different manner”.

As to `O=C(O)c1cn(C2CC2)c2cc(N3CCNCC3)c(F)cc2c1=O` [ciprofloxacin], the “change of levitation heights and cellular magnetic profiles versus untreated control” value in data set [7] was “change the levitation heights and cellular magnetic profiles in a different manner”.
